How the values were obtained:
[1] = Facilitation of emulsification of perfluorooctyl bromide: fine particles versus number of microfluidizer passes; assay type: physicochemical; conditions: perfluorooctyl bromide/lecithin emulsion, fine particles d<0,12 μm (FIG. 9)
Procedure: The compounds used in the methods of the invention facilitate the formation of the emulsion and lead to emulsions with fine particle size after a reduced number of passes or a reduced amount of energy. When the compound F8H8E of the invention is added to perfluorooctyl bromide/lecithin emulsion, 30% of fine particles are obtained after 10 passes. By comparison, the reference emulsion without the compounds of the invention requires 20 passes to obtain the same percentage of fine particles (FIG. 9).
The protocol described in Example 1 was used. The average particle size was measured during microfluidization after 1, 2, 3, 4, 5, 7 and 10 passes. The percentage of fine particles (d<0,12 μm) and of coarse particle (d>0,6 μm) was evaluated.
The same protocol as for reference emulsion E was used but for the addition of (F8H8E) as described in example 2.

[2] = Particle size and ageing stability of perfluorooctyl bromide/lecithin emulsions (photosedimentation); assay type: physicochemical; conditions: 90% w/v emulsion of perfluorooctyl bromide
Procedure: 32 g of egg-yolk lecithin and a mixture of salts whose composition is shown in detail in Table I was dispersed with Ultra Turrax under nitrogen (24000 t/min, 10 min) in 393 mL of injectable water. Perfluorooctyl bromide (PFOB, Perflubron®) (375 mL) was added slowly to this dispersion under nitrogen. The mixture was dispersed for 10 mn at 30-40° C. The coarse emulsion obtained was passed under nitrogen through a microfluidizer (M110F). After 10 passes under a pressure of 12000 psi in the chambers cooled to 35° C., the emulsion was recovered, filled in flasks then sterilized at 121° C. for 15 mn. The ageing was monitored at 5,25 and 40° C. (Table II and FIG. 1) and the average size of the particles measured by photosedimentation.
32 g of egg-yolk lecithin and a mixture of salts of the above composition (Table I) was dispersed under nitrogen using an Ultra Turrax T50 (24000 t/min, 10 min) in 379 mL of injectable water at 30-40° C. F6H8E (14.3 mL) was slowly added to this dispersion, which was stirred for 2 min. Perfluorooctyl bromide (375 mL) was then slowly added. The whole was emulsified for 10 min at 24000 t/min at 30-40° C. The coarse emulsion obtained was run under nitrogen through the microfluidizer and after 10 passes (12000 psi, 35° C.) the emulsion was filled in vials, sterilized and stored at 5,25 and 40° C. (Table II and FIG. 1). […]
The same protocol described in the example of Reference A was used but for 16 g of egg-yolk lecithin. The aging was monitored at 40° C. (Table II and FIG. 4).
The protocol described in example 1 was used with 385 mL of water, 8.38 mL of F8H8E, 16 g of lecithin and 375 mL of perfluorooctyl bromide. After microfluidization, the emulsion was sterilized and stored at 40° C. (Table II and FIG. 4). EXAMPLE 5 […]
The same protocol described in example of reference A was used but for 8 g of egg-yolk lecithin. The aging was monitored at 40° C. (Table II and FIG. 6 ) and the average size of the particles was measured by photosedimentation.
The protocol described in example 1 was used with 382 mL of water, 4,19 mL of F8H8E, 8 g of lecithin and 375 mL of perfluorooctyl bromide. After microfluidization the emulsion was sterilized and stored at 40° C. (Table II and FIG. 6).

[3] = cited from earlier work

Row | Structure (SMILES) | number of passes to obtain 30% of fine particles [1] [passes] | particle size ([2]; 0.1% w/v EYP and an equimolar amount of F8H8E) | particle size ([2]; 0.2% w/v of EYP and an equimolar amount of F8H8E) | particle size ([2]; 1% w/v of EYP and 0.7% w/v of F8H8E (FIG. 6)) | particle size ([2]; 2% w/v of EYP and 1.4% w/v of F8H8E (FIG. 4)) | half retention time in liver (comparison value) [3] [days]
1 | CCCCCCCCC=CC(F)(F)C(F)(F)C(F)(F)C(F)(F)C(F)(F)C(F)(F)C(F)(F)C(F)(F)F [Example F8H8E, C8F17CH═CHC8H17] | 10 | about 2.75 μm | about 1.5 μm | about 0.38 μm | about 0.23 μm | 
2 | FC(F)(F)C(F)(F)C(F)(F)N(C(F)(F)C(F)(F)C(F)(F)F)C(F)(F)C(F)(F)C(F)(F)F [perfluorotripropylamine] |  |  |  |  |  | 65
